Test results from patent US20250144049A1, “METHODS, COMPOSITIONS, AND USES RELATED TO THE TREATMENT AND PREVENTION OF LEIGH SYNDROME” (Stealth BioTherapeutics Inc., priority 2023, published 2025).

Experiment: Pharmacokinetics of Compound 3 after repeated (5 days) subcutaneous dosing
Type: in vivo
Protocol: The volume of each dose delivered (mL/kg) was based on each individual animal's body weight. • This was a multiple dose terminal study dosed once per day over 5 days. Rats were taken down following their 5th and final dose. • Doses were administered in accordance with test facility standard operating procedures.
• Terminal blood samples were collected via cardiac puncture following inhalation anesthesia in accordance with test facility standard operating procedures. • Blood samples were collected into tubes with appropriate anticoagulant. Tubes were stored on wet ice until processed to plasma by centrifugation (3500 rpm at 5° C. for 10 minutes) within 20 minutes of collection. Sample aliquots of 100 μL were transferred into individual uniquely labeled matrix tubes and stored at nominal −80° C. until transferred to analytical chemistry for analysis. • Immediately following each terminal blood collection for all groups, animals were sacrificed and perfused with cold PBS. The following tissues were collected: heart and brain, in accordance with Table 4. • Plasma and tissue samples were processed for analysis by LC/MS/MS to determine the amounts/concentrations reported in the Figures.

SMILES: CC1=C(C)C(=O)C(CC[C@@](C)(O)COCCC[Si](C)(C)C)=C(C)C1=O [Compound 3]
- uptake to plasma and clearance rate, mouse versus rat (20 mg/kg SC mouse vs 10 mg/kg SC rat (60 mg/m^2), 30 minutes to 24 hours, FIG. 17): roughly equivalent
- tolerability (rat, 10 mg/kg SC, 5 daily doses): well tolerated
